Earlier results in PMC5404532, “Simplified Reversed Chloroquines To Overcome Malaria Resistance to Quinoline-Based Drugs” (Antimicrobial Agents and Chemotherapy, 2017).
Where two headings read alike, the source gives them in different places.

What was measured:
mouse spleen lymphocytes = conditions: cited from earlier work
P. falciparum 7G8 (CQR) = conditions: CQR 7G8, cited from earlier work
P. falciparum D6 (CQS) = conditions: cited from earlier work
P. falciparum Dd2 (CQR) = conditions: cited from earlier work

## Clc1ccc2c(NCCCN3CCN(C(c4ccccc4)c4ccccc4)CC3)ccnc2c1 [Compound 3]
Mouse spleen lymphocytes; ref Burgess et al. (33)
  Cytotoxicity: 1,100 nM
P. falciparum 7G8 (CQR); ref Burgess et al. (33)
  IC50: 11 nM
P. falciparum D6 (CQS); ref Burgess et al. (33)
  IC50: 1.9 nM
P. falciparum Dd2 (CQR); ref Burgess et al. (33)
  IC50: 2.6 nM

## O=C(CNCCNc1ccnc2cc(Cl)ccc12)N(Cc1ccccc1)Cc1ccccc1 [Compound 2]
Mouse spleen lymphocytes; ref Andrews et al. (32)
  Cytotoxicity: 62,000 nM
P. falciparum D6 (CQS); ref Andrews et al. (32)
  IC50: 14 nM
P. falciparum Dd2 (CQR); ref Andrews et al. (32)
  IC50: 16 nM

## CN(CCCNc1ccnc2cc(Cl)ccc12)CCCN1c2ccccc2CCc2ccccc21 [Compound 1]
Mouse spleen lymphocytes; ref Burgess et al. (31)
  Cytotoxicity: 700 nM
P. falciparum 7G8 (CQR); ref Burgess et al. (31)
  IC50: 4 nM
P. falciparum D6 (CQS); ref Burgess et al. (31)
  IC50: 2.9 nM
P. falciparum Dd2 (CQR); ref Burgess et al. (31)
  IC50: 5.3 nM
